Columns and labels:
[1] = Photochromic properties of photochromic cured product made by kneading method; format: physicochemical; details: for Maximum absorption wavelength: 1 mm, after color development, second absorption wavelength (lower line of pair); for Color developing density at 23°C: absorbance difference after 240 seconds irradiation at 23°C; for Color developing density at 35°C: absorbance difference after 240 seconds irradiation at 35°C
Text: First, the photochromic compound obtained in Example 1, additives, and polymerizable compounds were mixed to obtain a curable composition. As the polymerizable compounds, a blend of the following polymerizable monomers in combination was used. • 1,3-Bis(isocyanatomethyl)cyclohexane: 36.7 parts by mass Pentaerythritol tetrakis(3-mercaptopropionate): 39.4 parts by mass • Polyoxyethylene polyoxypropylene lauryl ether (WONDERSURF 140 from Aoki Oil Industrial Co., Ltd.): 17.4 parts by mass 1-Decanethiol: 2.8 parts by mass • RX-1 prepared according to the method described in Patent Document 12: 3.8 parts by mass Note that in the curable composition, the photochromic compound was added to be 0.106 mmol taking the total amount of the polymerizable monomers as 100 g.
The following additives were used. Dimethyltin dichloride: 0.05 parts by mass • Irganox 245 from BASF Japan Ltd.: 0.1 parts by mass • 2-Ethylhexyl 4-methoxycinnamate: 0.6 parts by mass
The prepared curable composition was sufficiently degassed, and then injected into a glass mold provided with a gap of 1 mm, and the curable composition was polymerized via casting polymerization. […] After the polymerization, the cured product was removed from the glass mold, to obtain photochromic cured product having a thickness of 1 mm. The resulting photochromic cured product was evaluated in the same manner as in Example 23.
(Examples 51 to 60, and Comparative Examples 11 to 14) Photochromic cured products were formed using the photochromic compound shown in Table 6 in the same manner as in Example 50.

[2] = Photochromic properties of photochromic laminate (plastic lens) made by coating method; format: physicochemical; details: for Color developing density at 23°C: absorbance difference after 240 seconds irradiation at 23°C; for Color developing density at 35°C: absorbance difference after 240 seconds irradiation at 35°C; for Maximum absorption wavelength: after color development, second absorption wavelength (lower line of pair)
Text: First, the photochromic compound obtained in Example 1 above, a photoinitiator, and polymerizable compounds were mixed to obtain a curable composition.
As the polymerizable compounds, a blend of the following radically-polymerizable monomers in combination was used.
• Polyethylene glycol dimethacrylate (average molecular weight: 736): 42 parts by mass • Polyethylene glycol dimethacrylate (average molecular weight: 536): 12 parts by mass • Trimethylolpropane trimethacrylate: 38 parts by mass • γ-Methacryloyloxypropyltrimethoxysilane: 2 parts by mass • Glycidyl methacrylate: 1 part by mass.
Note that in the curable composition, the photochromic compound obtained in Example 1 above was added to be 0.25 mmol taking the total amount of the radically-polymerizable monomers as 100 g. The following were used as additives.
(stabilizer, Irganox 245): 1 part by mass Bis(1,2,2,6,6-pentamethyl-4-piperidyl) sebacate: 3 parts by mass Leveling agent from DuPont Toray Specialty Materials K.K. (L7001): 0.1 parts by mass.
Note that the above-mentioned additives are described with blending ratios taking a total of the radically-polymerizable monomers as 100 parts by mass.
Using this curable composition, a photochromic laminate was obtained by a lamination process described below with the polymerization described below being carried out.
First, a thiourethane plastic lens with a center thickness of 2 mm and a refractive index of 1.60 was prepared as an optical substrate. Note that the thiourethane plastic lens had been alkaline-etched beforehand in a 10% aqueous sodium hydroxide solution at 50°C for 5 minutes, and then thoroughly washed with distilled water.
A spin coater (1H-DX2, manufactured by MIKASA CO., LTD) was used to coat a surface of the above-mentioned plastic lens with a moisture-curable primer (product name: TR-SC-P, manufactured by Tokuyama Corporation) at a rotation speed of 70 rpm for 15 seconds, followed by at 1000 rpm for 10 seconds. Then, about 2 g of the photochromic curable composition obtained as above was spin-coated at a rotation speed of 60 rpm for 40 seconds, followed by at 600 rpm for 10 to 20 seconds so as to achieve a photochromic coating layer with a film thickness of 40 µm.
The lens having the surface coated with the photochromic curable composition (photochromic coating layer) was irradiated with light for 90 seconds in a nitrogen gas atmosphere using a metal halide lamp with an output of 200 mW/cm^2 to cure the coating film. The coating was then further heated at 110°C for 1 hour to produce a photochromic laminate with a photochromic layer.
Photochromic laminates were produced using the photochromic compounds obtained in Examples 2 to 19 in the same manner as in Example 20.
Photochromic laminates were obtained in the same manner as in Example 20 using photochromic compounds represented by the following formulas (A) to (F). [drawing 143] [drawing 144] [drawing 145] [drawing 146] [drawing 147] [drawing 148] [drawing 149] [drawing 150]
The resulting photochromic laminates were evaluated by the methods described below.
Table 3 summarizes the results of Examples 20, 32, and 34, and Comparative Examples 1 to 6, and Table 4 summarizes the results of Examples 21 to 31, 33, and 35 to 38. The relationship between the fading half-life at 23°C and the color development ratio at the higher temperature of the photochromic laminates according to Examples and Comparative Examples are shown in a graph in FIG. 1.
Photochromic laminates were formed using the photochromic compound obtained in Examples 61 to 71 in the same manner as in Example 20.

[3] = Photochromic properties of photochromic layer (binder sheet) made by binder method; details: for Color developing density at 23°C: absorbance difference after 240 seconds irradiation at 23°C; for Color developing density at 35°C: absorbance difference after 240 seconds irradiation at 35°C; for Maximum absorption wavelength: after color development, second absorption wavelength (lower line of pair)
Protocol: This is the maximum absorption wavelength after color development determined by a spectrophotometer manufactured by Otsuka Electronics Co., Ltd. (instantaneous multichannel photo detector MCPD3000) and was used as an index of a color tone upon color development.
This is a difference between an absorbance {ε(240)} after irradiation with light at the above-mentioned maximum absorption wavelength at 23°C for 240 seconds and an absorbance ε(0) when not irradiated with light, and was used as an index of a color developing density. The higher this value is, the better photochromic property is.
This is a difference between an absorbance {ε(240)} after irradiation with light at first and second absorption wavelengths at 35°C for 240 seconds and an absorbance ε(0) when not irradiated with light, and was used as an index of a color developing density. The higher this value is, the better photochromic property is.
Color developing density at 35°C (A35) /color developing density at 23°C (A23) × 100(%). The higher this value is, the smaller the difference in color developing density between the higher temperature and the lower temperature is, and the smaller the temperature dependence is.
This is the period of time required for the absorbance at a maximum absorption wavelength of a sample to decrease to 1/2 of {ε(240)-ε(0)}, when light irradiation is stopped after the sample had been irradiated with light at 23°C for 240 seconds, and was used as an index of a color fading rate. The shorter this period of time is, the higher the color fading rate is.
A binder sheet was made according to the following method. […] As the first and second optical sheets, polycarbonate sheets with a thickness of 400 µm were used.
Note that the photochromic compound was added to be 0.25 mmol relative to 100 parts by mass of the terminally non-reactive urethaneurea resin.

Maximum absorption wavelength [1] [nm]	Color developing density at 23°C ([1]; first absorption wavelength)	Color developing density at 23°C ([1]; second absorption wavelength)	Color developing density at 35°C ([1]; first absorption wavelength)	Color developing density at 35°C ([1]; second absorption wavelength)	Color developing density at 23°C ([2]; first absorption wavelength)	Color developing density at 23°C ([2]; second absorption wavelength)	Color developing density at 35°C ([2]; first absorption wavelength)	Color developing density at 35°C ([2]; second absorption wavelength)	Maximum absorption wavelength [2] [nm]	Color developing density at 23°C ([3]; first absorption wavelength)	Color developing density at 23°C ([3]; second absorption wavelength)	Color developing density at 35°C ([3]; first absorption wavelength)	Color developing density at 35°C ([3]; second absorption wavelength)	Maximum absorption wavelength [3] [nm]	Compound
616	0.90 -	1.04 -	0.66 -	0.78 -	0.87 -	1.02 -	0.63 -	0.75 -	608	0.90 -	1.04 -	0.63 -	0.74 -	608	COc1ccc(C2(c3ccc(OC)cc3)C=Cc3c4c(c5ccc(OC)cc5c3O2)-c2ccc(N3CCOc5ccccc53)cc2C4(C)C)cc1 [Formula (13-2)]
615	1.50 -	0.86 -	1.12 -	0.66 -	1.43 -	0.83 -	1.06 -	0.62 -	608	1.47 -	0.85 -	1.06 -	0.61 -	609	COCCCCC1(CCCCOC)c2cc(N(C)c3ccccc3)ccc2-c2c1c1c(c3cc(OC)c(OC)cc23)OC(c2ccc(OC)cc2)(c2ccc(OC)cc2)C=C1 [Formula (2-7)]
631	0.69 -	1.17 -	0.49 -	0.84 -	0.68 -	1.14 -	0.48 -	0.81 -	626	0.68 -	1.16 -	0.47 -	0.80 -	627	COc1ccc(C2(c3ccc(N4CCOCC4)cc3)C=Cc3c4c(c5ccc(OC)cc5c3O2)-c2ccc(N(C)c3ccccc3)cc2C42CCCCCCC2)cc1 (centres unmarked) [Formula (4-3)]

Continued, molecule first:

Compound	Maximum absorption wavelength [1] [nm]	Color developing density at 23°C ([1]; first absorption wavelength)	Color developing density at 23°C ([1]; second absorption wavelength)	Color developing density at 35°C ([1]; first absorption wavelength)	Color developing density at 35°C ([1]; second absorption wavelength)	Color developing density at 23°C ([2]; first absorption wavelength)	Color developing density at 23°C ([2]; second absorption wavelength)	Color developing density at 35°C ([2]; first absorption wavelength)	Color developing density at 35°C ([2]; second absorption wavelength)	Maximum absorption wavelength [2] [nm]	Color developing density at 23°C ([3]; first absorption wavelength)	Color developing density at 23°C ([3]; second absorption wavelength)	Color developing density at 35°C ([3]; first absorption wavelength)	Color developing density at 35°C ([3]; second absorption wavelength)	Maximum absorption wavelength [3] [nm]
COc1ccc(C2(c3ccc(OC)cc3)C=Cc3c4c(c5ccc(OC)cc5c3O2)-c2ccc(N(c3ccccc3)c3ccccc3)cc2C4(C)C)cc1 [Formula (15-2)]	622	0.95 -	1.10 -	0.70 -	0.83 -	0.92 -	1.07 -	0.67 -	0.79 -	619	0.93 -	1.08 -	0.67 -	078 -	616
COCCCC1(CCCOC)c2cc(N(c3ccccc3)c3ccccc3)ccc2-c2c1c1c(c3cc(OC)c(N4CCOCC4)cc23)OC(c2ccc(C)cc2)(c2ccc(N(C)c3ccccc3)cc2)C=C1 (centres unmarked) [Formula (69-2)]	–	–	–	–	–	1.76 -	1.28 -	1.32 -	0.96 -	640	–	–	–	–	–
